From patent publication US11633421B2, “Use of NAD precursors for improving maternal health and/or offspring health” (UNIVERSITY OF IOWA RESEARCH FOUNDATION, priority 2016, dated 2023)

Legend:
[1] = Maternal weight gain, NR chloride in chow from 12 weeks before mating through weaning; type: in vivo; conditions: female mice, NC+NR vs NC
Description: Mice are a widely used model of human metabolism because they are capable of recapitulating many aspects of human health. […] Therefore, mice were used in a series of in vivo experiments to evaluate whether maternally supplemented NR has the ability to improve maternal and/or neonatal health and development. Specifically, it was asked whether addition of NR chloride (3 g/kg of chow) to the diet of female mice would alter their health during and after pregnancy and whether this administration would produce any beneficial effects on the pups.
Female C57BL/6N mice were raised in 12 hour light:dark cycles on Teklad 2920X chow (NC). For 12 weeks prior to mating with a single C57BL/6N male, females were on either NC (n=4) or NC+NR (n=4). Females were maintained on the same diet through gestation and weaning, which was at 21 days after birth.

[2] = NAD precursor vitamins in milk; type: in vivo, mice
Procedure: (§1) A series of in vivo murine experiments were performed to evaluate the effects of nicotinamide riboside on milk production. […] As shown in FIGS. 8A-C, the concentration of protein, carbohydrate and fat in the milk of NR-supplemented mothers was normal. Because there is approximately 2-fold more milk produced by NR-supplemented mothers, NR-supplemented mothers transmit more calories to their offspring, which thereby assists maternal weight loss and neonatal development. In FIG. 9A, the concentration of NAD precursor vitamins in the milk from control mothers and NR-supplemented mothers was determined. […] Oral NR was labeled with heavy atoms in the nicotinamide and ribose moieties of NR and this was provided to lactating mothers by gavage.

[3] = Transmission of heavy-atom labeled oral NR into milk; type: in vivo, mice; conditions: oral NR labeled with heavy atoms in nicotinamide and ribose moieties, gavage to lactating mothers
Procedure: FIGS. 9A-B. Orally administered NR is not directly transmitted via milk.
as §1

[4] = system: brain derived neurotrophic factor (BDNF); assay: BDNF in milk; type: in vivo, mice; conditions: NR-supplemented mothers
Procedure: FIG. 10. NR supplemented mothers produce milk with higher brain-derived neurotrophic factor. Milk from NC and NR mothers was tested. […] Based on the advanced brain and neurobehavioral development that was observed, it was investigated whether NR-supplemented mothers produced more BDNF in their milk.

[5] = system: NAD biosynthetic genes in the liver; assay: Hepatic NAD biosynthetic gene expression and NAD metabolites; type: in vivo; conditions: lactating mice with vs without NR
Description: Lactation boosts NAD biosynthetic genes (FIG. 11A) and NAD levels (FIG. 11B) in the liver. […]. Lactation seems to depress levels of NR (FIG. 11C) and Nam (FIG. 11D) in the liver.

prolactin = assay: Prolactin levels in plasma from dam; type: in vivo, mice; conditions: plasma from dam on NC or NR chow
Description: FIGS. 13A-D. NR boosts prolactin circulation and mammary biosynthetic pathways for protein, fat and carbohydrate. FIG. 13A. Prolactin levels in plasma from dam on NC or NR chow. FIG. 13B. mTOR pathway is activated in NR-supplemented mammary tissue. FIG. 13C. Genes involved in lipid biosynthesis are activated in NR-supplemented mammary tissue. FIG. 13D. Genes involved in lactose synthesis pathway are activated in NR-supplemented mammary tissue. […] In addition, the size of the mammary tissue itself is greater in NR-supplemented mothers than in non-supplemented mothers (FIG. 14A).

[6] = Mammary gland development (size of mammary tissue); type: in vivo, mice; conditions: NR-supplemented vs non-supplemented mothers
Description: (§2) FIGS. 14A-B. Postpartum NR supplementation promotes mammary gland development (n=5 mice per group) (FIG. 14A). NR increases heat loss by increasing expression of UCP1 (FIG. 14B). […] In addition, the size of the mammary tissue itself is greater in NR-supplemented mothers than in non-supplemented mothers (FIG. 14A).

UCP1 = UCP1 expression in mammary tissue; type: in vivo, mice; conditions: NR-supplemented vs NC mothers
Description: as §2

[7] = Elevated plus maze test of offspring; type: in vivo, mice; conditions: 85 day old adult offspring; males reached statistical significance
Description: Males are not afraid to “stick their head out”. The order of the bars from left to right are: males of normal chow (NC) mothers (white with light grey outline), followed by males of NR-supplemented mothers (filled light grey), followed by females of NC mothers (white with dark grey outline), followed by females of NR-supplemented mothers (filled dark grey). At 64 days past the mother's intervention, the willingness of 85 day old adult offspring of mice from this experiment (NC or NR-supplemented) to put their heads out in an elevated plus maze was tested. […] The clear indication is that maternal NR produces improvements in maternal behavior and/or qualitative and/or quantitative improvements in lactation sufficient to improve the development and health of offspring. The ability of the mother's 21 day micronutrition to produce beneficial effects on her offspring into adulthood was not at all anticipated.

[8] = Body composition of adult offspring; type: in vivo, mice; conditions: 90 days old
Procedure: FIGS. 23A-C. 69 days after their mother's intervention, 90 day-old adult offspring of NR-supplemented mothers have less fat mass. The order of the bars from left to right are: males of normal chow (NC) mothers (white with light grey outline), followed by males of NR-supplemented mothers (filled light grey), followed by females of NC mothers (white with dark grey outline), followed by females of NR-supplemented mothers (filled dark grey). At 90 days old, body composition analysis was performed on the mice. […] There is no effect on the total amount of lean mass (23C). Particularly because the maternal intervention produced somewhat bigger weanlings with more fat and lean mass, the protection against age-induced weight gain was unanticipated.

[9] = Brain size and caudate putamen of offspring; type: in vivo, mice
Description: FIGS. 24A-D. 69 days after their mother's intervention, the female offspring tend to have larger brains […] (FIG. 24A). Pups of NR-supplemented moms show advanced pruning of the caudate putamen at day 22 (FIGS. 24B-C); however, the caudate putamen in pups from NR-supplemented mothers grows to a normal size in adulthood (FIG. 24D). The order of the bars from left to right are: males of normal chow (NC) mothers (white with light grey outline), followed by males of NR-supplemented mothers (filled light grey), followed by females of NC mothers (white with dark grey outline), followed by females of NR-supplemented mothers (filled dark grey). At 91 days, the mice were sacrificed and examined with respect to their brains. In FIG. 24A, it was shown that female mice from NR-supplemented mothers have larger brains in adulthood. We hypothesized that the caudate putamen, which is the motor learning center of the brain, may have developed more rapidly in mice whose mothers had been NR-supplemented either due to the increased quality and/or quantity of milk they received and/or improved maternal care.

[10] = NR-supplemented vs non-supplemented mothers

NC(=O)c1ccc[n+]([C@@H]2O[C@H](CO)[C@@H](O)[C@H]2O)c1 [NR, nicotinamide riboside]
maternal body fat at the time of weaning [1]: tended to have lower body fat
weight gain from the day of mating to the day of weaning ([1]; NR chloride 3 g/kg of chow): protected from this weight gain
NR concentration in milk [2, 10]: moderately higher
nicotinamide (Nam) concentration in milk [2, 10]: moderately higher
NAD precursor vitamins (total B3) transmitted ([2]; concentration coupled with larger milk volume): significantly more
labeled species released into milk [3]: only single labeled nicotinamide and no double-labeled NR
concentration of BDNF in the milk vs non-supplemented mothers [4]: 2 fold
NAD biosynthetic genes and NAD levels in the liver [5]: does not superinduce
hepatic NAD biosynthetic gene expression [5]: did not further increase
levels of NR and Nam in the liver [5]: depresses the accumulation of these metabolites in the liver even more
circulating prolactin (prolactin): very high levels
size of the mammary tissue [6]: greater
expression of UCP1 in mammary tissue (UCP1): increase in expression
willingness to put heads out in an elevated plus maze [7]: higher willingness
total amount of lean mass of adult offspring [8]: no effect
body size of adult offspring ([8]; male offspring): slightly smaller
adipose tissue of adult offspring ([8]; males and females, 69 days after mother's intervention): less adipose tissue
brain size in adulthood ([9]; 91 days, female mice from NR-supplemented mothers): larger
caudate putamen in adults ([9]; adult offspring): not affected
caudate putamen pruning (area of PSD95 staining) ([9]; female weanlings): clearly advanced pruning
caudate putamen size in weanlings ([9]; weanlings at 21 days): slightly smaller
